Each structure is given as a SMILES string.

Our source for the Ki values is PMC5609037, “Selective inhibition of PfA-M1, over PfA-M17, by an amino-benzosuberone derivative blocks malaria parasites development in vitro and in vivo” (Malaria Journal, 2017).

Test [1] has as its target T1, PfA-M17 (P. falciparum leucyl aminopeptidase) (Plasmodium falciparum, UniProt Q8IL11).
T1 construct: gene LAP; residues 84–605, N-terminal hexahistidine tag, recombinant from E. coli
Put plainly: Leu-pNA hydrolysis at […] nm, Ki by Dixon plots. The class given is biochemical.

Test [2] addresses T2, PfA-M1 (P. falciparum alanyl aminopeptidase, M1 family aminopeptidase) (Plasmodium falciparum, UniProt O96935).
T2 construct: gene M1AAP; residues 192–1085, N-terminal hexahistidine tag, recombinant from E. coli
Put plainly: Ala-pNA hydrolysis at […] nm, Ki by Dixon plots. The class given is biochemical.

T2 sequence (O96935 192-1085): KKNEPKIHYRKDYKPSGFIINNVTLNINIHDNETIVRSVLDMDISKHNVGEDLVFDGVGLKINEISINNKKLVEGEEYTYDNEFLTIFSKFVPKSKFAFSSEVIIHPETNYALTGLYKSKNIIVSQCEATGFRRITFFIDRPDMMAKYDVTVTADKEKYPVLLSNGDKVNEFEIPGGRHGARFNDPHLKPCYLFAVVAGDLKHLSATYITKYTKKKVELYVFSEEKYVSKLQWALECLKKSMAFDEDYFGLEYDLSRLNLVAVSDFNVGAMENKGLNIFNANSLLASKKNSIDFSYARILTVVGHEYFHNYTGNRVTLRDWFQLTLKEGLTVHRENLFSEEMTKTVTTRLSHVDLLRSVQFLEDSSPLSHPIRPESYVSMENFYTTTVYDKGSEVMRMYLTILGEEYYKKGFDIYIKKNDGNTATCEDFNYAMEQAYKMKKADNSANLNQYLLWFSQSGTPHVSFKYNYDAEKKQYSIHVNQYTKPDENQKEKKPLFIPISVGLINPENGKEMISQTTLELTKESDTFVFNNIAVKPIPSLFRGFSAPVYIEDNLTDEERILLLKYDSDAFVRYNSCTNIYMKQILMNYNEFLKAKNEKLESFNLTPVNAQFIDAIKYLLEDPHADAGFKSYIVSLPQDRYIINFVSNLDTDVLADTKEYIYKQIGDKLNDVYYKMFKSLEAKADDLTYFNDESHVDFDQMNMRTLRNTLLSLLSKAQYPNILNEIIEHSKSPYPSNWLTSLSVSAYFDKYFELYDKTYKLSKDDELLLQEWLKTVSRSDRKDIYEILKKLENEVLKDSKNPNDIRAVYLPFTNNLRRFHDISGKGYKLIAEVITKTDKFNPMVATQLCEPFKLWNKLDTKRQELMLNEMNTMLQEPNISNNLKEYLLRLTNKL
T1 sequence (Q8IL11 84-605): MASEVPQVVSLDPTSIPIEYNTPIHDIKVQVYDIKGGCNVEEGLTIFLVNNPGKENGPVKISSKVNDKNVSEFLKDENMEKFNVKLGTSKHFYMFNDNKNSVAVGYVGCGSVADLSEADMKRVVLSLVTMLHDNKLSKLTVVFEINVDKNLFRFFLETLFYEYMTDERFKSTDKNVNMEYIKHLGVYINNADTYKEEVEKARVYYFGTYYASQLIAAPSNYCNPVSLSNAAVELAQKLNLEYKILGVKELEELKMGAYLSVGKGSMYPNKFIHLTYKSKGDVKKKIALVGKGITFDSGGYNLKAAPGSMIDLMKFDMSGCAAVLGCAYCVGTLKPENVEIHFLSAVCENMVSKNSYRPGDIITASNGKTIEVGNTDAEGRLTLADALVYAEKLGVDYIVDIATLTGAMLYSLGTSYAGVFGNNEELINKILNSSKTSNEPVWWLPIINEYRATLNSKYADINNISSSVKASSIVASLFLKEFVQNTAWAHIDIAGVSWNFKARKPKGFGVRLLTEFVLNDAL

Take `CC(C)C[C@H](NC(=O)[C@@H](O)[C@H](N)Cc1ccccc1)C(=O)O` [bestatin]: the Ki in test [1] came to 400 nM; in test [2], 100 nM.
